Read-outs that look alike come from different tables or passages of the source.
How the values were obtained:
[1] = oral administration of enteric-coated doxapram; cited from earlier work
[2] = biological target: T1, Kv1.5 (Homo sapiens, UniProt P22460); assay: Ion channel current inhibition in Xenopus laevis oocytes, Kv1.5; type: cell-based; conditions: FIG. 1D
T1 construct: expressed in transfected cells; host or cells: Xenopus laevis oocytes
From the text: (§1) FIG. 1: Inhibitory effects of doxapram and ketodoxapram on TASK-1 K-ion channels, recorded by voltage-clamp measurements in Xenopus laevis oocytes. A) Concentration-effect curve for doxapram on porcine TASK-1; B) Concentration-effect curve for doxapram on human TASK-1; C) Concentration-effect curve for ketodoxapram on human TASK-1; […] E) Inhibition of TASK-1 by doxapram, ketodoxapnram, and mixtures thereof. The ion channels TASK-1 ([…].1), Kv4.3, Kv1.5, Kv2.1, Kir3.1/4, Kv1.4 are predominantly expressed in the atrial myocardium. The ion channel TASK-3 ([…].1) is not expressed in the human myocardium but structurally related to TASK-1 (Schmidt C et al. (2015), Circulation 132(2): 82). Ion channel current inhibition was measured in Xenopus laevis oocytes (FIG. 1 D)).

[3] = Plasma pharmacokinetics in pigs after intravenous doxapram; type: in vivo, pig; conditions: for Tmax / AUC(0-inf) / Cmax / AUC / half-life: 1.8 mg/kg body weight; for Tmax / AUCextra / AUC(0-inf) / Cmax / AUC / half-life: intravenous bolus of doxapram; for AUC(0-inf) / Cmax / AUC / half-life: pig, plasma, iv; for AUC: read-out: AUC0-n
From the text: FIG. 3: Pharmacokinetics of doxapram and ketodoxapram in pigs after intravenous administration. Concentration of doxapram and ketodoxapram, respectively, as measured in plasma samples taken at the indicated time points.
Pharmacokinetics of doxapram and ketodoxapram.
(§2) Analysis of doxapram and ketodoxapram in tissues. Mass spectrometry, in particular liquid chromatography tandem-mass spectrometry (LC-MS/MS) with deuterated internal standard, was used to quantify the concentrations of doxapram and ketodoxapram in tissue samples and plasma.
Doxapram was administered as an intravenous bolus to pigs and plasma concentration was determined over time.

[4] = test system: pigs; assay: Adverse effects observed in pigs on overdosing; type: in vivo, pig; conditions: pigs 40-60 kg body weight
Experimental: Adverse effects observed in pigs. […] These effects were not observed when an overdose of ketodoxapram was administered.

[5] = in vivo; conditions: pig
From the text: FIG. 4: Quantification of doxapram and ketodoxapram in porcine tissue samples. A) doxapram and ketodoxapram were quantified in brain tissue samples (CNS) and plasma samples of two pigs; B) Concentrations of doxapram and ketodoxapram in brain tissues of pigs treated with doxapram, which was metabolized to ketodoxapram.
FIG. 6: Correlation between plasma concentration and brain concentration of doxapram and its metabolite ketodoxapram in pigs after intravenous administration of doxapram; pig numbers and their group status are indicated (SR: sinus rhythm; AF: atrial fibrillation).
FIG. 7: Correlation between plasma concentration and brain concentration of ketodoxapram in pigs after intravenous administration of ketodoxapram; pig numbers and their group status are indicated (AF: atrial fibrillation).
FIG. 8: Short-term distribution of doxapram and its metabolite ketodoxapram in pigs 30 min after administration of doxapram; pig numbers and their group status are indicated (SR: sinus rhythm).
Quantification of ketodoxapram and doxapram in porcine tissues. In two pigs, doxapram and ketodoxapram were administered and quantified in brain tissue samples (CNS) and plasma samples (FIG. 4A).
as §2
Pigs with sinus rhythm or atrial fibrillation were treated with intravenous doxapram and plasma and brain samples were taken essentially simultaneously.
In two pigs, doxapram and ketodoxapram concentrations were determined in brain and plasma 30 min after intravenous administration.

[6] = biological target: T2, TASK-1 (Homo sapiens, UniProt O14649); assay: TASK-1 current inhibition, voltage clamp in Xenopus laevis oocytes (human channel); type: cell-based; parameters: expressed in transfected cells; host or cells: Xenopus laevis oocytes; conditions: for Competition between ketodoxapram and doxapram at TASK-1: both compounds present, FIG. 1E; for IC50: voltage clamp, FIG. 1B/1C
From the text: as §1, with “thereof. Concentration-response curves for ketodoxapram and doxapram. TASK-1 current inhibition was recorded by voltage clamp measurements in Xenopus laevis oocytes according to standard protocols. […]” for “thereof.”, “D)). […] To test for competition between ketodoxapram and doxapram, concentration-response curves were determined by measuring TASK-1 current inhibition recorded by voltage clamp measurements in Xenopus laevis oocytes.” for “D)).”

[7] = Plasma trough concentrations in pigs during long-term administration; type: in vivo, pig; conditions: repeated intravenous doses of doxapram over 18 days, FIG. 9
Experimental: FIG. 9: Plasma trough concentrations of doxapram and its metabolite ketodoxapram in pigs during repetitive intravenous administration of doxapram over 18 days.
FIG. 10: Plasma concentrations of ketodoxapram in pigs during long-term administration of ketodoxapram.
Pigs were administered repeated doses of doxapram over a period of several days.

[8] = test system: pigs with persistent atrial fibrillation; assay: Cardioversion of pacing-induced persistent atrial fibrillation in pigs; type: in vivo, pig
Experimental: Doxapram and ketodoxapram were successfully applied for cardioversion in pigs. To induce atrial fibrillation in pigs, at first, pacemakers were implanted. Atrial fibrillation was induced by atrial rapid pacing. […] On average, pharmacological cardioversion to sinus rhythm was successful 3 minutes after injection of doxapram or ketodoxapram.

[9] = test system: atrial fibrillation (AF) in humans; assay: Cardioversion of atrial fibrillation in humans; type: in vivo, human; conditions: injection via peripheral venous catheter, dose adapted to body weight
Experimental: For cardioversion of atrial fibrillation (AF) in humans, doxapram can be injected via a peripheral venous catheter. The dose will be adapted to the body weight of the patient. Cardioversion is achieved within a few minutes (<30 minutes). The ECG of the patient is continuously monitored to detect the presence of atrial fibrillation (AF) or successful cardioversion. In case of an unsuccessful cardioversion, a second dose can be applied. If AF is present after applying the second dose, a conventional electrical cardioversion can be performed. To prevent AF episodes, patients can receive repeated a maintenance doses adapted to the body weight for oral or intravenous application.

[10] = biological target: porcine TASK-1 (Sus scrofa, UniProt A0A286ZMZ4); assay: TASK-1 current inhibition, voltage clamp in Xenopus laevis oocytes (porcine channel); type: cell-based; conditions: FIG. 1A
From the text: FIG. 1: Inhibitory effects of doxapram and ketodoxapram on TASK-1 K-ion channels, recorded by voltage-clamp measurements in Xenopus laevis oocytes. A) Concentration-effect curve for doxapram on porcine TASK-1; B) Concentration-effect curve for doxapram on human TASK-1; C) Concentration-effect curve for ketodoxapram on human TASK-1; […] E) Inhibition of TASK-1 by doxapram, ketodoxapnram, and mixtures thereof. Concentration-response curves for ketodoxapram and doxapram. TASK-1 current inhibition was recorded by voltage clamp measurements in Xenopus laevis oocytes according to standard protocols.

[11] = biological target: T2, TASK-1; assay: TASK-1 current inhibition, patch-clamp in human atrial cardiomyocytes; type: cell-based; parameters: human atrial cardiomyocytes isolated from heart auricles of patients with sinus rhythm; endogenous in cells; host or cells: human atrial cardiomyocytes from heart auricles of patients with sinus rhythm; conditions: cardiomyocytes from heart auricles of patients with sinus rhythm, FIG. 2
From the text: FIG. 2: Effects of ketodoxapram and doxapram in human atrial cardiomyocytes recorded by voltage-clamp measurements.

[12] = Pharmacokinetics in a horse after three intravenous doses of doxapram; type: in vivo; conditions: FIG. 11
Experimental: FIG. 11: Pharmacokinetics of doxapram and its metabolite ketodoxapram in a horse after three intravenous administrations of doxapram.
Three intravenous doses of doxapram were administered to a horse.

[13] = average of pigs 98, 99, 100, plasma
[14] = average of pigs 98, 99, 100, plasma, read-out: T1/2 (converted)
[15] = pig 98, plasma, read-out: T1/2 (converted)
[16] = pig 99, plasma, read-out: T1/2 (converted)
[17] = pig 100, plasma, read-out: T1/2 (converted)
[18] = pigs, summary of Table 1, read-out: Elimination half-life
[19] = iv, Brain concentration as percentage of plasma concentration
[20] = Xenopus laevis oocytes, FIG. 1D
[21] = intravenous 1.8 mg per kg body weight
[22] = intravenous 0.5 mg per kg body weight

T2 sequence (O14649 whole entry): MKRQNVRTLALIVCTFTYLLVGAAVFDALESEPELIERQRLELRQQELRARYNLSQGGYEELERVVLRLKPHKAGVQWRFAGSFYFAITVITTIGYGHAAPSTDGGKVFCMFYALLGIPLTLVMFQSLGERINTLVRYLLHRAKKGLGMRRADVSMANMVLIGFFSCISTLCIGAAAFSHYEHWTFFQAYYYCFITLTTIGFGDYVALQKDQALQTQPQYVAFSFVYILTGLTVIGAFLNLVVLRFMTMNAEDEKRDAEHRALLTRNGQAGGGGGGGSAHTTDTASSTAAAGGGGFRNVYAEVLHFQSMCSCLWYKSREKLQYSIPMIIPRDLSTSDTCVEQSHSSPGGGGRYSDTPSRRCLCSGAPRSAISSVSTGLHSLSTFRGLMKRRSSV
T1 sequence (P22460 whole entry): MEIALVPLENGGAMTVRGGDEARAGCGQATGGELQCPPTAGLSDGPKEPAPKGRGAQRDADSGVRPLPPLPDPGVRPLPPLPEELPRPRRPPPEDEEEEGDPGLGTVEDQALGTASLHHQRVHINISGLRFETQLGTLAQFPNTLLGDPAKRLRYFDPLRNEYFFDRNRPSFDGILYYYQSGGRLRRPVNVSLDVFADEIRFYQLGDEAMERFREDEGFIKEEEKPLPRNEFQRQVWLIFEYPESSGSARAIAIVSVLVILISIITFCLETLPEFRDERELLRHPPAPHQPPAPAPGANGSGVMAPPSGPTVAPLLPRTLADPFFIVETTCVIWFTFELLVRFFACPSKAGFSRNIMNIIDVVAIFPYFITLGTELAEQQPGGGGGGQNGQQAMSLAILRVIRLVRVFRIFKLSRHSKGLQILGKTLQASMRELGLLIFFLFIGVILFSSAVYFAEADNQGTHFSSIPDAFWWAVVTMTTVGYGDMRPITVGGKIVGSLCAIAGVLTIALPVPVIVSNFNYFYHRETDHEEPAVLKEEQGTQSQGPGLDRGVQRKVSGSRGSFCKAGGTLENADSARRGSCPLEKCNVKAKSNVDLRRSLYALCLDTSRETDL
Chain of porcine TASK-1 (A0A286ZMZ4 1-401): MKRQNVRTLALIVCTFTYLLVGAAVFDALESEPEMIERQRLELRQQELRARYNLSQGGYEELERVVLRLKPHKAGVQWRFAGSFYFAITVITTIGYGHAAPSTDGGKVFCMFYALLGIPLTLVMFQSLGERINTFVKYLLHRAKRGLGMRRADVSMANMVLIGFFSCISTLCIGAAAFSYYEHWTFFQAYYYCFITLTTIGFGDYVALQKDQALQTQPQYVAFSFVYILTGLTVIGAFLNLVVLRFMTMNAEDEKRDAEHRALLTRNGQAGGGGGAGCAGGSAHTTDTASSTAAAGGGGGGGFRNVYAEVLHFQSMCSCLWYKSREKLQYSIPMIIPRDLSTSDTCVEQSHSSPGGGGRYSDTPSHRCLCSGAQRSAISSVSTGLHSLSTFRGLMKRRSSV

Inhibition of ion channel Kv1.5 [2]	Tmax ([3]; pig 98, plasma) [h]	AUCextra [3, 13] [%]	AUCextra ([3]; pig 98, plasma) [%]	AUCextra ([3]; pig 99, plasma) [%]	AUCextra ([3]; pig 100, plasma) [%]	AUC(0-inf) [3, 13] [ng·h/mL]	Cmax [3, 13] [ng/mL]	AUC [3, 13] [ng·h/mL]	half-life [3, 14] [h]	AUC(0-inf) ([3]; pig 98, plasma) [ng·h/mL]	Cmax ([3]; pig 98, plasma) [ng/mL]	AUC ([3]; pig 98, plasma) [ng·h/mL]	half-life [3, 15] [h]	AUC(0-inf) ([3]; pig 99, plasma) [ng·h/mL]	Cmax ([3]; pig 99, plasma) [ng/mL]	AUC ([3]; pig 99, plasma) [ng·h/mL]	half-life [3, 16] [h]	AUC(0-inf) ([3]; pig 100, plasma) [ng·h/mL]	SMILES	Concentrations of doxapram and ketodoxapram in plasma relative to each other [1]	other results
not inhibited	0	0.80	0.61	1.53	0.26	2950	4090	2930	2.12	2200	2310	2180	1.92	3180	5060	3130	2.65	3480	CCN1CC(CCN2CCOCC2)C(c2ccccc2)(c2ccccc2)C1=O (stereo not drawn) [doxapram, 1-ethyl-4-(2-morpholin-4-ylethyl)-3,3-diphenyl-pyrrolidin-2-one]	about equal	Metabolism of doxapram in pigs ([3]; doxapram 1.8 mg/kg body weight, plasma samples, FIG. 3): rapidly metabolized to ketodoxapram; Cmax ([3]; pig 100, plasma): 4900 ng/mL; AUC ([3]; pig 100, plasma): 3470 ng·h/mL; half-life [3, 17]: 1.79 h; half-life [3, 18]: 2 to 3 h; Central nervous adverse effects [4]: clear signs of central nervous adverse effects; Plasma concentrations of doxapram and ketodoxapram relative to each other [5]: similar; Accumulation in the brain relative to ketodoxapram ([5]; iv): 60-500 times; Detection of doxapram after ketodoxapram administration ([5]; iv): not detected; Kp [5, 19]: 0.0024; Kp at 30 min [5, 19]: 0.001; Most strongly inhibited ion channel among TASK-1, TASK-3, Kv4.3, Kv1.5, Kv2.1, Kir3.1/4, Kv1.4 [6, 20]: TASK-1 was the most strongly inhibited ion channel; Competition between ketodoxapram and doxapram at TASK-1 [6]: replaced at the ion channel by ketodoxapram; IC50 ([6]; Xenopus laevis oocytes): 0.5 µM; Course of plasma trough concentrations [7]: initial accumulation phase; Cardioversion of persistent atrial fibrillation [8, 21]: sufficient for cardioversion in all tested animals; Time to cardioversion to sinus rhythm after injection, on average [8, 21]: 3 min; Time to cardioversion [9]: < 30 min; IC50 [10]: 1 µM
not inhibited	1	6.99	4.65	12.36	3.96	308	47.9	282	2.81	157	31.8	149	2.59	504	63.5	442	3.48	265	CCN1CC(CCN2CCOCC2=O)C(c2ccccc2)(c2ccccc2)C1=O (stereo not drawn) [ketodoxapram, 4-(2-(1-ethyl-5-oxo-4,4-diphenyl-3-pyrrolidinyl)ethyl)-3-morpholinone]	about equal	TASK-1 inhibition compared with doxapram [11]: significantly stronger than inhibition by doxapram; Cmax ([3]; pig 100, plasma): 48.3 ng/mL; AUC ([3]; pig 100, plasma): 254 ng·h/mL; half-life [3, 17]: 2.36 h; half-life [3, 18]: 2 to 3 h; Central nervous adverse effects [4]: not observed; Concentration in brain tissue compared with doxapram in the same tissue [5]: several orders of magnitude lower; Crossing of the blood-brain barrier compared with doxapram [5]: much less effectively than doxapram; Plasma concentrations of doxapram and ketodoxapram relative to each other [5]: similar; Brain concentration as percentage of the corresponding doxapram concentration ([5]; iv): 0.2-1.7%; Effect on TASK-1 compared with doxapram [6, 20]: significantly stronger than the effect of doxapram; Most strongly inhibited ion channel among TASK-1, TASK-3, Kv4.3, Kv1.5, Kv2.1, Kir3.1/4, Kv1.4 [6, 20]: TASK-1 was the most strongly inhibited ion channel; Competition between ketodoxapram and doxapram at TASK-1 [6]: stronger affinity to TASK-1; IC50 ([6]; Xenopus laevis oocytes): 1.25 µM; Initial metabolite accumulation phase [12]: 4 to 5 days; Plasma concentration as percentage of parent compound doxapram [12]: about 10%; Course of plasma trough concentrations [7]: initial accumulation phase; Cardioversion of persistent atrial fibrillation [8, 22]: sufficient for cardioversion in all tested animals; Time to cardioversion to sinus rhythm after injection, on average [8, 22]: 3 min

Reference: patent US20210308103A1, “TASK-1 INHIBITORS FOR TREATMENT OF ATRIAL ARRHYTHMIAS” (Universität Heidelberg, priority 2018, published 2021)
